Source: US7196110B2, “N-substituted tricyclic 3-aminopyrazoles as inhibitors for the treatment of cell proliferative disorders” (Janssen Phamaceutica N.V., priority 2002, dated 2007)
Where two headings read alike, the source gives them in different places.

Target: T1, PDGF-receptor beta enzyme comprising the tyrosine kinase domain (Homo sapiens, UniProt P09619)
T1 construct: from amino acid 545 to 1106 of GenBank Access NO: AAA36427
Assay: Inhibition of PDGF-receptor kinase activity (cell-free, PLC1 peptide, 33P Flashplate)
Assay type: biochemical
Settings: for inhibition at 10 µM: compound at 10 uM, read-out: Percent Inhibition @ 10 uM
Protocol: PDGF-R kinase activity was assayed by its ability to phosphorylate one of its target proteins, PLCγ, in a cell-free system, in particular, a PLC1 peptide comprising the tyrosine residue where the phosphorylation occurs was used for the assay.
10× Kinase Buffer (500 mM Tris-HCl pH=8, 100 mM MgCl2, 1 mM Na3VO4); 10 mM DTT (final concentration at 1 mM in assay); 10 mM ATP (final concentration at 5 μM in assay); ^33P-γ-ATP (Cat. No.: NEG/602H. 2000-3000 Ci/mmol) purchased from NEN; Purified, soluble, recombinant PDGF-receptor beta enzyme comprising the tyrosine kinase domain (from amino acid 545 to 1106 of GenBank Access NO: AAA36427 ) at 0.4 mg/mL; Enzyme Dilution Buffer (50 mM Tris-HCl pH=8.0, 0.1% BSA); Wash/Stop Buffer (PBS +100 mM EDTA); NEN Streptavidin Flashplates (Cat. No.: SMP-103) which binds to the biotinylated PLC1 peptide but not the PDGF-R enzyme; PLC1 peptide (Biotin-[…]-Amide) at 1 mM in 50 mM Tris-HCL with pH of 8.0.
Reagents were first mixed according the following regimen:
The above reaction mixture was dispensed into each well of a Flashplate at 70 μl/well. To test the effect of a compound on PDGF-R kinase activity, the test compound either in a fixed concentration or in serially diluted concentrations in 100% DMSO was added to appropriate wells at 1 μl/well.
Enzyme PDGF-R was diluted in Enzyme dilution buffer as following:
The kinase reaction was initiated by adding 30 μl of diluted PDGF-R enzyme solution to each well on the Flashplate containing hot ATP and PLC1, except wells of column 12 rows E through H, which were used to calculate the plate background. The Flashplate was swirled to mix and was incubated at 30° C. for 60 minutes. Then, the reaction mixture was discarded and the Flashplate was washed 3 times each with 200 μl Wash/Stop Buffer. Subsequently, each well on the Flashplate was filled with 200 μl of Wash/Stop buffer. The amount of ^33P retained in each well was measured using a Packard TopCount after the plate was sealed with a transparent plate sealer.
The percentage of inhibition of the test compound on PDGF-R kinase activity is defined as […].
In order to test the potency of inhibition of present compounds, an IC50 for an individual compound was measured using the above procedure. As used herein, the IC50 for PDGF-R kinase activity refers to the concentration of an inhibitor at which the activity of the PDGF-R kinase is reduced by one-half as compared with reactions containing no inhibitor.

[1] = read-out: IC50 (μM) on PDGF-R kinase activity
[2] = PDGF-R kinase activity, read-out: IC50

T1 sequence (P09619 545-1106): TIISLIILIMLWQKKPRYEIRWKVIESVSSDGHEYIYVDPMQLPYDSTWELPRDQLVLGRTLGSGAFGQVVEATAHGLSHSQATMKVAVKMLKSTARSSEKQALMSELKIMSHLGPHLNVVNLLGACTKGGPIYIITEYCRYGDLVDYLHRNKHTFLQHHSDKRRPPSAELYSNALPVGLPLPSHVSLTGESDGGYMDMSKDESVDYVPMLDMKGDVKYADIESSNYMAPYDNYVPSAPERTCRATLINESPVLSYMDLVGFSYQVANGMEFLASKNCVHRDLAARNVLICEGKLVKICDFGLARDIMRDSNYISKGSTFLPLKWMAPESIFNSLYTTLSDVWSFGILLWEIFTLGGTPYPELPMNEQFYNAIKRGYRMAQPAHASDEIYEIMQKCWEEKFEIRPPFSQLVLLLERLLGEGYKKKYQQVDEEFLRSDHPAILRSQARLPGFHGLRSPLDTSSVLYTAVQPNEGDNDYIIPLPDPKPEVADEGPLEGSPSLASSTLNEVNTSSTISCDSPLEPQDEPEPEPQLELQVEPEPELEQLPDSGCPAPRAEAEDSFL

Row | inhibition at 10 µM (PDGF-R kinase activity) | IC50 [1] | IC50 [2] | Structure (SMILES)
1 | 100% | 0.0278 µM | – | COc1cc2c(cc1OC)C(C)c1c-2n[nH]c1NCc1c(Cl)cccc1Cl (single isomer, unassigned) [Compound 586, (2,6-Dichloro-benzyl)-(6,7-dimethoxy-4-methyl-2,4-dihydro-indeno[1,2-c]pyrazol-3-yl)-amine]
2 | 78% | 0.547 µM | – | CCC1c2cc(OC)c(OC)cc2-c2n[nH]c(Nc3cccnc3Cl)c21 (single isomer, unassigned) [Compound 607, (2-Chloro-pyridin-3-yl)-(4-ethyl-6,7-dimethoxy-2,4-dihydro-indeno[1,2-c]pyrazol-3-yl)-amine]
3 | 91% | – | 0.317 µM | c1ccc(Nc2[nH]nc3c2Cc2ccccc2-3)cc1 [Compound 1]
4 | 90% | – | 0.157 µM | Clc1ccc(Nc2[nH]nc3c2Cc2ccccc2-3)cc1 [Compound 3, (4-Chloro-phenyl)-(2,4-dihydro-indeno[1,2-c]pyrazol-3-yl)-amine]
5 | 91% | – | – | COc1cc2c(cc1OC)-c1n[nH]c(Nc3ccc(Cl)cc3)c1C2 [Compound 5, (4-Chloro-phenyl)-(6,7-dimethoxy-2,4-dihydro-indeno[1,2-c]pyrazol-3-yl)-amine]
6 | 75% | – | 0.131 µM | COc1ccc(Nc2[nH]nc3c2Cc2cc(OC)c(OC)cc2-3)cc1 [Compound 6, (6,7-Dimethoxy-2,4-dihydro-indeno[1,2-c]pyrazol-3-yl)-(4-methoxy-phenyl)-amine]
7 | 92% | – | 0.217 µM | COc1ccc2c(c1)Cc1c-2n[nH]c1Nc1ccccc1 [Compound 7, (6-Methoxy-2,4-dihydro-indeno[1,2-c]pyrazol-3-yl)-phenyl-amine]
8 | 89% | – | – | COc1cc2c(cc1OC)-c1n[nH]c(Nc3ccccc3Cl)c1C2 [Compound 9, (2-Chloro-phenyl)-(6,7-dimethoxy-2,4-dihydro-indeno[1,2-c]pyrazol-3-yl)-amine]
9 | 68% | – | 2.07 µM | CCOC(=O)c1ccc(Nc2[nH]nc3c2Cc2cc(OC)c(OC)cc2-3)cc1 [Compound 10, 4-(6,7-Dimethoxy-2,4-dihydro-indeno[1,2-c]pyrazol-3-ylamino)-benzoic acid ethyl ester]
10 | 79% | – | 1.92 µM | COc1cc2c(cc1OC)-c1n[nH]c(Nc3ccccc3OC(F)(F)F)c1C2 [Compound 15, (6,7-Dimethoxy-2,4-dihydro-indeno[1,2-c]pyrazol-3-yl)-(2-trifluoromethoxy-phenyl)-amine]
11 | 79% | – | 4 µM | COc1cc2c(cc1OC)-c1n[nH]c(Nc3ccc(OC(F)(F)F)cc3)c1C2 [Compound 16, (6,7-Dimethoxy-2,4-dihydro-indeno[1,2-c]pyrazol-3-yl)-(4-trifluoromethoxy-phenyl)-amine]
12 | 79% | – | 3.54 µM | COc1cc2c(cc1OC)-c1n[nH]c(Nc3ccc(Cl)cc3Cl)c1C2 [Compound 17, (2,4-Dichloro-phenyl)-(6,7-dimethoxy-2,4-dihydro-indeno[1,2-c]pyrazol-3-yl)-amine]
13 | 65% | – | 0.23 µM | COc1cc2c(cc1OC)-c1n[nH]c(Nc3ccc(Cl)c(Cl)c3)c1C2 [Compound 18, (3,4-Dichloro-phenyl)-(6,7-dimethoxy-2,4-dihydro-indeno[1,2-c]pyrazol-3-yl)-amine]
14 | 91% | – | 0.174 µM | COc1cc2c(cc1OC)-c1n[nH]c(Nc3cc(Cl)cc(Cl)c3)c1C2 [Compound 19, (3,5-Dichloro-phenyl)-(6,7-dimethoxy-2,4-dihydro-indeno[1,2-c]pyrazol-3-yl)-amine]
15 | 77% | – | 1.1 µM | COc1cc2c(cc1OC)-c1n[nH]c(Nc3cccc(Cl)c3Cl)c1C2 [Compound 20, (2,3-Dichloro-phenyl)-(6,7-dimethoxy-2,4-dihydro-indeno[1,2-c]pyrazol-3-yl)-amine]
16 | 103% | – | 0.121 µM | Clc1ccc2c(c1)Cc1c-2n[nH]c1Nc1ccccc1 [Compound 21, (6-Chloro-2,4-dihydro-indeno[1,2-c]pyrazol-3-yl)-phenyl-amine]
17 | 87% | – | 1.94 µM | Cc1cccc2c1Cc1c-2n[nH]c1Nc1ccccc1 [Compound 23, (5-Methyl-2,4-dihydro-indeno[1,2-c]pyrazol-3-yl)-phenyl-amine]
18 | 71% | – | 0.084 µM | Fc1ccc2c(c1)Cc1c-2n[nH]c1Nc1ccccc1 [Compound 24, (6-Fluoro-2,4-dihydro-indeno[1,2-c]pyrazol-3-yl)-phenyl-amine]
19 | 62% | – | 4.77 µM | COc1cc2c(cc1OC)-c1n[nH]c(Nc3ccc(C(F)(F)F)cc3)c1C2 [Compound 25, (6,7-Dimethoxy-2,4-dihydro-indeno[1,2-c]pyrazol-3-yl)-(4-trifluoromethyl-phenyl)-amine]
20 | 71% | – | 0.655 µM | COc1ccccc1Nc1[nH]nc2c1Cc1cc(OC)c(OC)cc1-2 [Compound 27, (6,7-Dimethoxy-2,4-dihydro-indeno[1,2-c]pyrazol-3-yl)-(2-methoxy-phenyl)-amine]
21 | 96% | – | 19.1 µM | COc1cc2c(cc1OC)-c1n[nH]c(Nc3ccccc3C(F)(F)F)c1C2 [Compound 28, (6,7-Dimethoxy-2,4-dihydro-indeno[1,2-c]pyrazol-3-yl)-(2-trifluoromethyl-phenyl)-amine]
22 | 59% | – | 0.115 µM | COc1cc2c(cc1OC)-c1n[nH]c(Nc3ccccc3C)c1C2 [Compound 31, (6,7-Dimethoxy-2,4-dihydro-indeno[1,2-c]pyrazol-3-yl)-o-tolyl-amine]
23 | 59% | – | 1.41 µM | COc1cc2c(cc1OC)-c1n[nH]c(Nc3ccc(C)cc3)c1C2 [Compound 33, (6,7-Dimethoxy-2,4-dihydro-indeno[1,2-c]pyrazol-3-yl)-p-tolyl-amine]
24 | 57% | – | 6.99 µM | COc1cc2c(cc1OC)-c1n[nH]c(Nc3cc(Cl)ccc3Cl)c1C2 [Compound 34, (2,5-Dichloro-phenyl)-(6,7-dimethoxy-2,4-dihydro-indeno[1,2-c]pyrazol-3-yl)-amine]
25 | 88% | – | 2.06 µM | O=C1c2ccccc2-c2n[nH]c(Nc3ccccc3)c21 [Compound 35, 3-Phenylamino-2H-indeno[1,2-c]pyrazol-4-one]
26 | 80% | – | 1.98 µM | COc1cc2c(cc1OC)-c1n[nH]c(Nc3ccc4cn[nH]c4c3)c1C2 [Compound 37, (6,7-Dimethoxy-2,4-dihydro-indeno[1,2-c]pyrazol-3-yl)-(1H-indazol-6-yl)-amine]
27 | 63% | – | 5.95 µM | COc1cc2c(cc1OC)-c1n[nH]c(Nc3ccc(N(C)C)cc3)c1C2 [Compound 40]
28 | 85% | – | 0.692 µM | COc1cc2c(cc1OC)-c1n[nH]c(Nc3cc(OC)c(OC)c(OC)c3)c1C2 [Compound 42, (6,7-Dimethoxy-2,4-dihydro-indeno[1,2-c]pyrazol-3-yl)-(3,4,5-trimethoxy-phenyl)-amine]
29 | 60% | – | 0.195 µM | COc1cc2c(cc1OC)-c1n[nH]c(Nc3ccccc3Br)c1C2 [Compound 43, (2-Bromo-phenyl)-(6,7-dimethoxy-2,4-dihydro-indeno[1,2-c]pyrazol-3-yl)-amine]
